The results in this text go back to PubChem BioAssay (NCI).

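Five concentrations, 48 hours, 96-well plates. GI50 = concentration required for 50% inhibition of growth. TGI: total growth inhibition.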

Test systems include SF-295 CNS; K-562 leukemia; HOP-92 NSCLC; SNB-19 CNS; HT29 colon; HCT-116 colon; EKVX NSCLC; BT-549 breast; UACC-62 melanoma; SF-539 CNS.
Holding throughout (test): NCI anticancer screen, dose series, 48 h

Regarding `CC(C(=O)O)c1ccc(-c2ccccc2)c(F)c1` (stereo unspecified), the TGI with SF-295 CNS, with K-562 leukemia, in the assay with HOP-92 NSCLC, in the assay on SNB-19 CNS, in the assay on HT29 colon and with HCT-116 colon was more than 100000 nM each time. Also, the TGI with EKVX NSCLC, in the assay on BT-549 breast, in the assay with UACC-62 melanoma and with SF-539 CNS was more than 100000 nM throughout. In addition, the GI50 in the assay on HOP-92 NSCLC is 47600 nM.
On to `COC(=O)c1cc(-c2ccc(OC)cc2)[nH]c1N/N=C/c1c(Cl)cccc1Cl`, for which the GI50 with SF-295 CNS is 124 nM; in the assay with K-562 leukemia, 144 nM; with HOP-92 NSCLC it was 206 nM; in the assay with SNB-19 CNS, 358 nM; in the assay with HT29 colon, 255 nM; in the assay on HCT-116 colon it was 354 nM. Further, the GI50 in the assay on EKVX NSCLC was 224 nM; in the assay on BT-549 breast it was 177 nM; in the assay on UACC-62 melanoma it was 205 nM; with SF-539 CNS it was 172 nM. In addition, the TGI was determined as 1490 nM in the assay with SF-295 CNS; 6650 nM in the assay with K-562 leukemia; 2500 nM in the assay with HOP-92 NSCLC; 11500 nM in the assay with SNB-19 CNS; 1260 nM in the assay on HT29 colon; 2140 nM in the assay with HCT-116 colon. Moreover, the TGI in the assay on EKVX NSCLC worked out at 3230 nM; in the assay on BT-549 breast, 2020 nM; in the assay on UACC-62 melanoma it was 16800 nM; in the assay on SF-539 CNS, 553 nM.
With `CC(C)(C)n1cc(-c2ccnc(NCCCNS(=O)(=O)c3ccc(Br)cc3)c2)c(-c2cccc(O)c2)n1`, the GI50 is 1710 nM in the assay with SF-295 CNS; 2020 nM in the assay on K-562 leukemia; 1560 nM with HOP-92 NSCLC; 2110 nM in the assay with SNB-19 CNS; 1420 nM in the assay with HT29 colon; 1310 nM with HCT-116 colon. Also, the GI50 was 1950 nM in the assay with EKVX NSCLC, 1500 nM in the assay with BT-549 breast, 1590 nM in the assay with UACC-62 melanoma and 1700 nM with SF-539 CNS. Also, the TGI in the assay on SF-295 CNS was 3250 nM; in the assay with K-562 leukemia, more than 100000 nM; in the assay with HOP-92 NSCLC, 3430 nM; with SNB-19 CNS, 4370 nM; in the assay on HT29 colon, 3790 nM; in the assay on HCT-116 colon, 2600 nM. Moreover, the TGI in the assay on EKVX NSCLC came out at 4580 nM; in the assay with BT-549 breast, 2980 nM; in the assay on UACC-62 melanoma, 3060 nM; with SF-539 CNS, 3170 nM.
On to `CCOC(=O)c1c2c(n(Cc3ccccc3)c1C)-c1nc(Cc3ccccc3)[nH]c1C(=O)C2=O`, for which the GI50 in the assay with SF-295 CNS is 1920 nM; with K-562 leukemia it was 1850 nM; in the assay with HOP-92 NSCLC, 1170 nM; with SNB-19 CNS it was 1720 nM; with HT29 colon, 1640 nM; in the assay with HCT-116 colon it was 1490 nM. In addition, the GI50 with EKVX NSCLC was 1840 nM; in the assay on BT-549 breast it was 1430 nM; in the assay with UACC-62 melanoma, 1740 nM; in the assay with SF-539 CNS it was 1770 nM. Further, the TGI with SF-295 CNS was determined as 4140 nM; in the assay with K-562 leukemia it was 4050 nM; in the assay with HOP-92 NSCLC, 2450 nM; with SNB-19 CNS it was 3090 nM; in the assay on HT29 colon it was 3000 nM; in the assay with HCT-116 colon, 2900 nM. The TGI in the assay with EKVX NSCLC is 3270 nM; in the assay on BT-549 breast, 2990 nM; in the assay with UACC-62 melanoma it was 3550 nM; in the assay on SF-539 CNS, 3300 nM.
In the case of `N=c1ccc2nc3c(cc(N)c4ccccc43)oc-2c1`, the GI50 with SF-295 CNS was 199 nM; with K-562 leukemia it was 298 nM; with HOP-92 NSCLC, 1180 nM; in the assay on SNB-19 CNS, 242 nM; in the assay on HT29 colon, 535 nM; in the assay on HCT-116 colon, 167 nM. The GI50 in the assay on EKVX NSCLC was 174 nM; in the assay on BT-549 breast, 268 nM; with UACC-62 melanoma, 197 nM; in the assay on SF-539 CNS, 293 nM. Besides, the TGI was 599 nM in the assay on SF-295 CNS; 1180 nM with K-562 leukemia; 3600 nM with HOP-92 NSCLC; 795 nM with SNB-19 CNS; 1700 nM in the assay with HT29 colon; 353 nM in the assay on HCT-116 colon. Further, the TGI with EKVX NSCLC is 1090 nM; in the assay with BT-549 breast, 1270 nM; in the assay on UACC-62 melanoma it was 539 nM; with SF-539 CNS, 1050 nM.
`COC(=O)c1ccc2c(c1)C(=O)c1c-2n(CCCN)c(=O)c2cc(OC)c(OC)cc12`: the GI50 in the assay with SF-295 CNS is 17900 nM; in the assay with K-562 leukemia it was 2410 nM; in the assay with HOP-92 NSCLC, 14200 nM; in the assay on SNB-19 CNS, 19500 nM; in the assay on HT29 colon, 13800 nM; with HCT-116 colon, 16500 nM. Besides, the GI50 in the assay with EKVX NSCLC was 17700 nM; with BT-549 breast, 17100 nM; in the assay on UACC-62 melanoma it was 15400 nM; in the assay on SF-539 CNS, 17700 nM. In addition, the TGI in the assay on SF-295 CNS is 37300 nM; with K-562 leukemia, 5440 nM; in the assay with HOP-92 NSCLC it was 32100 nM; with SNB-19 CNS it was 42600 nM; in the assay on HT29 colon it was 31400 nM; in the assay with HCT-116 colon, 39700 nM. Also, the TGI is 38600 nM in the assay with EKVX NSCLC, 35400 nM in the assay with BT-549 breast, 30200 nM in the assay on UACC-62 melanoma and 34700 nM in the assay with SF-539 CNS.
For `CC(=O)c1cc(-c2ccccc2N)n(-c2ccc3c(c2)OCO3)c1C`, the GI50 in the assay with SF-295 CNS is 295 nM; in the assay with K-562 leukemia, 247 nM; in the assay on HOP-92 NSCLC, 149 nM; in the assay on SNB-19 CNS it was 299 nM; in the assay on HT29 colon it was 292 nM; in the assay on HCT-116 colon, 257 nM. Besides, the GI50 in the assay with EKVX NSCLC was 392 nM; with BT-549 breast it was 575 nM; in the assay on UACC-62 melanoma it was 227 nM; with SF-539 CNS, 181 nM. For the same molecule, the TGI was 45700 nM with SF-295 CNS; more than 100000 nM in the assay with K-562 leukemia; 24800 nM in the assay with HOP-92 NSCLC; more than 100000 nM with SNB-19 CNS; more than 35600 nM in the assay with HT29 colon; 15900 nM in the assay with HCT-116 colon. Also, the TGI is more than 100000 nM with EKVX NSCLC, 9900 nM in the assay on BT-549 breast, 23000 nM in the assay on UACC-62 melanoma and 487 nM in the assay on SF-539 CNS.
